{
  "source": "patent US10150792B2",
  "about": "“Bismuth-containing compounds, coordination polymers, methods for modulating pharmacokinetic properties of biologically active agents, and methods for treating patients” (priority 2010, dated 2018)",
  "key": {"[1]": {"settings": "high orally administered doses; cited from earlier work"}, "in vivo": {"assay": "in vivo", "settings": "rat", "description": "Method for Rat Pharmacokinetic Studies: Rat “feed and bleed” studies were performed with LD and synthetically prepared LD:metal complexes wherein key PK parameters, such as maximum concentration (Cmax), AUC, and time of maximum concentration (tmax) were measured vis-à-vis the reference drug, LD.\nIn each experiment, male Sprague-Dawley rats with jugular vein catheters (250-300 g; n=5-10) are used. These rats were obtained from a commercial source (Harlan Laboratory Animals, Dublin, Va.) and housed individually. Water was available ad libitum. Rats were fed certified rodent chow ad libitum. After arrival, the health of rats was assessed and animals were placed in quarantine for a minimum of five days during which time general health was assessed. At the end of quarantine, rats were moved to permanent animal quarters for access and study.\nAll studies employed oral dosing using size 9 rodent gelatin capsules from Torpac (Fairfield, N.J.). After fasting overnight, the rats are dosed at time zero with periodic blood sampling from the catheter (5-8 time points between 0 and 24 hours). Blood (200-300 μL) is drawn and collected in heparinized tubes. Plasma is separated by centrifugation and stored at −20° C. until work-up. Plasma samples are then treated according to developed methodology (e.g., FEBS Lett., 2002, 524 (1-3), 199-203), and analyzed (LC/MS/MS) for drug concentrations. Average plasma values (±SEM) for each time are calculated and PK parameters, including Cmax, tmax, and total amount absorbed (AUC0-6h), are determined using standard software.\nEach study employs a crossover design whereby the LD and a metal:LD complex are tested in the same rats with a 5-day wash-out period separating the two experiments."}},
  "data": [
    {"compound": "O=C(O)C(Cl)Cl", "note": "[DCA, dichloroacetate]", "values": [
      {"measurement": "Fraction absorbed", "setting": "[1]", "result": 100, "unit": "%"}
    ]},
    {"compound": "N[C@@H](Cc1ccc(O)c(O)c1)C(=O)O", "note": "[LD, levodopa, reference compound]", "values": [
      {"measurement": "Cmax", "setting": "in vivo; male, Sprague-Dawley, in vivo, po", "result": 17, "unit": "µM"},
      {"measurement": "Tmax", "setting": "in vivo; male, Sprague-Dawley, in vivo, po, 20 mg/kg", "result": 20, "unit": "min"}
    ]},
    {"compound": "tris(LD)bismuth oxide [Bi(O)(dopa)3]", "values": [
      {"measurement": "Course of LD plasma levels", "setting": "in vivo; FIG. 13, oral, equivalent to 20 mg/kg LD + carbidopa 10 mg/kg, sampling to 3 hours", "result": "remained at or near their peak levels for the duration of the study"},
      {"measurement": "LD plasma level at 3 hours", "setting": "in vivo; FIGS. 13 and 14, oral, equivalent to 20 mg/kg LD + carbidopa 10 mg/kg", "result": 10, "unit": "nmol/mL"}
    ]}
  ]
}
